Here are results for one compound from patent US20100173912A1, “Novel Compound” (priority 2007, published 2010).

This assay has as its target T1, human mGluR5b (Homo sapiens, UniProt P41594).
T1 construct: expressed in transfected cells; host or cells: CHO cells, pSwitch vector (Invitrogen), expression induced with mifepristone
In words: FLIPR positive modulator assay in CHO cells expressing human mGluR5b. Type of assay: cell-based. The settings on record: FLIPR second read after EC20 glutamate, normalised to EC20 (basal) and EC100 (total) glutamate response, read-out: pEC50 in the human mGluR5b positive modulator assay (converted). The procedure: CHO cells expressing human mGluR5b (pSwitch vector, Invitrogen) were maintained in DMEM media with 10% Foetal Calf Serum, 0.005% Hygromycin, Proline(10 mg/mL), Zeocin(0.005%). The media was replaced between subculturing days to remove any excess glutamate build up that may cause receptor desensitization. 24 hrs prior to conducting the assay, cells were plated in 384-well black flat clear bottom plates and mGluR5 expression was induced with the addition of 0.01 nM mifepristone. The plates were incubated at 37° C. to give a monolayer with a confluency of 80%.
The tissue culture medium was aspirated using a Tecan power washer. Cells were loaded with 30 μl of Hanks Balanced Salts (HBSS)+[…]+2 μM Fluo-4+250 μM Brilliant Black+0.01% Pluronic acid. The cells were incubated at 37° C. for 2 hours to allow uptake of the dye Fluo-4AM into the cell cytosol, which was converted to Fluo-4 by natural esterases cleaving the AM region preventing the Fluo-4 leaving the cell. […]
A 0.38 M solution of glutamic acid was prepared in water. […] A fluorescent reading was made. […] A second fluorescent read was made. […]
The compound was added ‘on line’ to the cells and a first FLIPR read was made to estimate agonism. The cell plates were then incubated at 37° C. for 5-10 min after which the chosen EC20 Glutamate was added ‘on line’ and a second FLIPR reading made to estimate modulation. […]

T1 sequence (P41594 21-1212): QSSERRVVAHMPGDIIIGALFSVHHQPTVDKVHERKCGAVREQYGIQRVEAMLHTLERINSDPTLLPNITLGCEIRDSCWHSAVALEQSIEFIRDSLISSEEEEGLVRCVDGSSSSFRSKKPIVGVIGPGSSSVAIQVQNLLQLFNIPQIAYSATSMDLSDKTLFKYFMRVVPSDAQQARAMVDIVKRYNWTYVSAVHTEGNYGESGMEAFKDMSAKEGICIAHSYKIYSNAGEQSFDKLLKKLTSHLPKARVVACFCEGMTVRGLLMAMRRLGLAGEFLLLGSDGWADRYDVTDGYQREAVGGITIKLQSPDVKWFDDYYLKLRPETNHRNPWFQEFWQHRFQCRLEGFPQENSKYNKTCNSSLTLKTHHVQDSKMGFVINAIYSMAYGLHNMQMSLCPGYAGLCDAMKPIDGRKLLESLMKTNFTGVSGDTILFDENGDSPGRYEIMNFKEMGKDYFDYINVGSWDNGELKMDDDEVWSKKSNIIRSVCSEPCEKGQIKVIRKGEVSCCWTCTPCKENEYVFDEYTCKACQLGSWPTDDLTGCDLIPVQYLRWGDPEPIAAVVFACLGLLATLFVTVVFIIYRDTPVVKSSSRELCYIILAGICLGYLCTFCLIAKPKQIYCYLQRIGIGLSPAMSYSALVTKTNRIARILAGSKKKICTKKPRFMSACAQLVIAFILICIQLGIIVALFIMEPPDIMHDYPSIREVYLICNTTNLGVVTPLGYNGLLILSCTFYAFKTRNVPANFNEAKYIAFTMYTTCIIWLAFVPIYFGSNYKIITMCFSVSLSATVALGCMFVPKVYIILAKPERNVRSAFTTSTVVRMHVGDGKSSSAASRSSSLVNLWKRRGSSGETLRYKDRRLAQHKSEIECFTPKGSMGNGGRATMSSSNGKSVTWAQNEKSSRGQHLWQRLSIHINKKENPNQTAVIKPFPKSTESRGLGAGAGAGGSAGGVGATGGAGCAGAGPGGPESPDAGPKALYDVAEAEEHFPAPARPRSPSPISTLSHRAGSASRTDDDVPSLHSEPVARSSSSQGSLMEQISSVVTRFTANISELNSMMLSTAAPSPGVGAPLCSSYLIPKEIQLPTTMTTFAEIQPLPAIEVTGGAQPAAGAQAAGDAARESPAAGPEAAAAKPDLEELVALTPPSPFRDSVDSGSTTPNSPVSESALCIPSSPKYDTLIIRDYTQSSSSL

For the compound `N#Cc1cc(F)ccc1N1CCN(C(=O)COCc2ccc(F)cc2)CC1` [5-fluoro-2-[4-({[(4-fluorophenyl)methyl]oxy}acetyl)-1-piperazinyl]benzonitrile], the EC50 is under 1000 nM.
